# According to BigSolDB 2.1:
smiles,measurement,setting,value
Clc1ccccc1C(c1ccccc1)(c1ccccc1)n1ccnc1,solubility (mole fraction),"in n-hexane, 293.15 K",0.000222
same,solubility (mole fraction),"in n-hexane, 298.15 K",0.000267
same,solubility (mole fraction),"in n-hexane, 303.15 K",0.000319
same,solubility (mole fraction),"in n-hexane, 308.15 K",0.000383
same,solubility (mole fraction),"in n-hexane, 313.15 K",0.000455
same,solubility (mole fraction),"in n-octanol, 293.15 K",0.0204
same,solubility (mole fraction),"in n-octanol, 298.15 K",0.0249
same,solubility (mole fraction),"in n-octanol, 303.15 K",0.0304
same,solubility (mole fraction),"in n-octanol, 308.15 K",0.0372
same,solubility (mole fraction),"in n-octanol, 313.15 K",0.045
